The test system of data set [1] is p-Smad2/3 and Smad7 in MRC-5 cells. Kind of data set: p-Smad2/3 and Smad7 expression in fibroblasts. Format: cell-based, human. Particulars: 5 mM NAC pre-treatment 1 h, TGF-β1 1 h. Here is the method:
The present inventors pre-treated a human pulmonary fibroblast cell line MRC-5 with 40 μM stearic acid for 16 hours, treated the MRC-5 cells with TGF-β1 for 1 hour, and then examined the expression levels of p-Smad2/3 and Smad7 in order to elucidate the anti-fibrotic mechanism of stearic acid in human pulmonary fibroblasts (FIGS. 12A and 12B). Further, to investigate the effect of stearic acid on the production of reactive oxygen species (ROS), MRC-5 cells were pre-treated with 40 μM stearic acid for 16 hours, and cells treated with TGF-β1 for 1 hour were stained with DCF-DA and analyzed by FACS (FIG. 12C). Furthermore, MRC-5 cells were pre-treated with 5 mM N-acetylcysteine (NAC), which is an antioxidant, for 1 hour and treated with TGF-β1 for 1 hour, and then the expression of p-Smad2/3 was examined (FIG. 12D).

A further data set deals with pulmonary fibroblasts. Kind of data set: Collagen 1 and α-SMA immunoblotting in pulmonary fibroblasts. Format: cell-based, human. Particulars: relative to control. Here is the method: After epithelial cells and fibroblasts were aliquoted into 6-well plates at 2×10^4 cells/well and a stabilization time was imparted for 24 hours, and 15 hours after deficiency, cells were treated with stearic acid (40 uM/mL), TGF-β (5 ng/mL), and stearic acid (40 uM/mL)+TGF-β (5 ng/mL) in this order. After the cells were cultured in an incubator for 24 hours after the treatment, the next-step experiment was performed. After 24 hours of cell stimulation by the method of Example 1-3, the cells were washed twice with iced phosphate buffer saline (PBS), a protein lysate solution was put thereinto, the cells were scraped out and collected in a 1.5 ml EP tube, and then the cells were lysed in a grinder for 30 seconds. Next, centrifugation was performed at a speed of 14,000 rpm at 4° C. for 20 minutes, and the protein was quantified using the BCA analysis method. Thereafter, the protein sample was boiled at 95° C. for 10 minutes for the same amount of protein, and then the expression levels of collagen type 1 and α-SMA were measured by immunoblotting. After the expression level of the protein was confirmed, a significance test between samples was performed using a statistical program. […] The collagen 1/actin or α-SMA/actin indicated on the y-axis of FIGS. 4A and 4B means a value obtained by correcting the protein amount of collagen 1 or α-SMA with the amount of actin, which is an intracellular control protein. […] Further, referring to the test method of obtaining the results in FIG. 4, after pulmonary fibroblasts were treated with palmitic acid at various concentrations (10, 20, and 40 μM/mL), the levels of collagen 1 (collagen 1/actin; FIG. 6A) and α-SMA (α-SMA/actin; FIG. 6B), which are intracellular fibrosis markers, were measured, and shown as relative values to the control (CTL; medium only). […] 40 uM/mL stearic acid, 10 uM/mL palmitic acid, and 5 ng/mL TGF-β were used in the experiment, respectively. […] In addition, referring to the test method of obtaining the results in FIG. 7, the experiment was performed using oleic acid (OA) instead of palmitic acid, and the levels of collagen 1 (collagen 1/actin; FIG. 8A) and α-SMA (α-SMA/actin; FIG. 8B) were measured and shown as relative values to the control (CTL; medium only). 40 uM/mL stearic acid, 40 uM/mL oleic acid, and 5 ng/mL TGF-β were used in the experiment, respectively.

Data set [2] has as its system human primary fibroblasts. In words: Combined treatment of stearic acid and pirfenidone in human primary fibroblasts (western blotting). Format: cell-based. Particulars: TGF-β single treatment group set to 100%; corrected with actin. The procedure: (§1) The primary fibroblasts derived from the patients with idiopathic pulmonary fibrosis used in the following experiment were cultured for 7 to 10 days while cutting the lung tissue of the patient into 1×1 mm^2 slices, and then periodically exchanging a cell culture solution (Eagle's minimal essential medium; EMEM) supplemented with 100 unit/ml penicillin, 100 μg/ml streptomycin, and 10% fetal bovine serum (FBS) under conditions of 5% CO2 and 37° C., and cells of passage 2 to 5 were used for the experiment.
To verify the anti-fibrotic effect by the combined treatment of stearic acid and pirfenidone, which is a therapeutic agent for idiopathic pulmonary fibrosis, the human primary fibroblasts isolated by the above-described method were respectively or simultaneously treated with 5 ng/ml TGF-β, 40 μM stearic acid, and 400 or 800 μM pirfenidone for 24 hours, and then the expression levels of collagen type 1 (COL-1) and α-SMA, which are markers of fibrosis, were measured by western blotting, and the inhibitory rate was quantitatively analyzed by correcting the amount of each protein with the amount of actin, which is an intracellular control protein.

For data set [3], the system named is human pulmonary epithelial cell line Beas-2B. Kind of data set: Fibronectin (EMT marker) expression under combined treatment in epithelial cells. Format: cell-based. Particulars: TGF-β 5 ng/ml; pirfenidone 800 μM, stearic acid 40 μM. The procedure:
FIG. 15 illustrates, as the results of confirming the anti-fibrotic effect according to the combined treatment with stearic acid and pirfenidone in a human pulmonary epithelial cell line BEAS-2B, the results of treating the cells with TGF-β (5 ng/ml), stearic acid (40 μM), and/or pirfenidone (800 μM), and then measuring the expression of fibronectin with a marker of EMT, which is one of the pulmonary fibrosis indices, and quantitatively analyzing the inhibitory efficiency thereof (TGF: TGF-β single treatment group, TGF+PIR: TGF-β and pirfenidone treatment group, TGF+Combi: TGF-β and pirfenidone+stearic acid combined treatment group).
In addition to the results of Example 3-1-1, the present inventors tried to analyze the degree of epithelial to mesenchymal transition (EMT), which is one of the indices for pulmonary fibrosis, during the combined treatment with stearic acid and pirfenidone by treating a human pulmonary epithelial cell line Beas-2B with 800 μM, and for this purpose, the expression level of fibronectin, which is one of the EMT markers, was measured.

In data set [4] the test system is pulmonary fibrosis induced by bleomycin. Kind of data set: Combined stearic acid and pirfenidone in bleomycin pulmonary fibrosis animal model. The class given is in vivo, mice (C57BL/6J). Particulars: 3 mg/kg stearic acid, 300 mg/kg pirfenidone oral once every 2 days for 2 weeks. The procedure: In addition to the results of the above examples, the present inventors sought to confirm the anti-fibrotic effect by the combined treatment of stearic acid and pirfenidone in a pulmonary fibrosis animal model. For this purpose, 8-week-old mice (C57BL/6J) were anesthetized with 50 mg/kg […] and 5 mg/kg Rompun, followed by injection of bleomycin and saline into the trachea. From 7 days after administration of bleomycin, 3 mg/kg stearic acid, 300 mg/kg pirfenidone or the two drugs were orally administered at the same time once every 2 days for 2 weeks, and changes in mouse body weight were measured up to 21 days after administration of bleomycin.

Data set [5] relates to human pulmonary fibroblasts (MRC-5). Kind of data set: Cell viability (MTT) of human pulmonary fibroblasts. The class given is cell-based. Particulars: palmitic acid 10, 20 and 40 μM/mL alone. Here is the method:
(§2) After epithelial cells and fibroblasts were aliquoted into 6-well plates at 2×10^4 cells/well and a stabilization time was imparted for 24 hours, and 15 hours after deficiency, cells were treated with stearic acid (40 uM/mL), TGF-β (5 ng/mL), and stearic acid (40 uM/mL)+TGF-β (5 ng/mL) in this order. After the cells were cultured in an incubator for 24 hours after the treatment, the next-step experiment was performed.
(§3) After a 24-hour cell stimulation by the method in Example 1-3 was completed, the medium of epithelial cells and fibroblasts was replaced with a general culture medium, 10 μl of an MTT solution (20 mg/ml) was further added, and then the outside of the plate was wrapped with aluminum foil and cells were cultured in an incubator for 2 hours. […] After 2 hours, cell activation was measured at an absorbance value of 595 nm using an ELISA reader.
(§4) For this purpose, after each culture (BEGM(Lonza) in the case of MRC-5, and BMEM (ATCC) in the case of BEAS-2B) of human pulmonary fibroblasts (MRC-5; ATCC® CCL171™) and human pulmonary epithelial cells (BEAS-2B; ATCC® CRL9609™) was treated with stearic acid (40 uM/mL), TGF-β (5 ng/mL; Sigma), or stearic acid (40 uM/mL)+TGF-β (5 ng/mL) by the method described in Example 1-3 for 24 hours, cell viability was measured by the method in Example 1-4. […]

The test system of data set [6] is human pulmonary epithelial cells (BEAS-2B). In words: Cell viability (MTT) of human pulmonary epithelial cells. Conditions: palmitic acid 10, 20 and 40 μM/mL alone. The class given is cell-based. Here is the method: as §2, §3, §4
For data set [7], the system named is human primary fibroblasts. Kind of data set: Combined treatment of stearic acid and nintedanib in human primary fibroblasts. Format: cell-based. Here is the method: as §1, with “experiment. To verify the anti-fibrotic effect by the combined treatment of stearic acid and nintedanib, which is another therapeutic agent for idiopathic pulmonary fibrosis, human primary fibroblasts were respectively or simultaneously treated with 5 ng/ml TGF-β, 40 μM stearic acid, and 1.5 or 2 μM nintedanib for 24 hours, and then the expression levels of collagen type 1 (COL-1) and α-SMA, which are markers of fibrosis, were measured, respectively.” for “experiment.”

[8] abbreviates: palmitic acid 10, 20 and 40 μM/mL alone.
The mark [9] stands for this setting: 1.5 μM nintedanib single treatment versus TGF single treatment.
Where [10] appears, read: 2 μM nintedanib single treatment versus TGF single treatment.

The values that follow come from patent US20210205253A1, “Use Of Stearic Acid For Preventing Or Treating Pulmonary Fibrosis” (THE ASAN FOUNDATION, priority 2018, published 2021).

`CC(=O)N[C@@H](CS)C(=O)O` [NAC, N-acetylcysteine, reference compound]: the “expression of p-Smad2/3 induced by TGF-β1” value in data set [1] is listed as “inhibited”.

Take `CCCCCCCC/C=C\CCCCCCCC(=O)O` [oleic acid, reference compound]: in the data set with pulmonary fibroblasts (oleic acid 40 uM/mL alone), the “collagen 1/actin” value is on record as “activated pulmonary fibrosis at the same level as in TGF-β” and the α-SMA/actin result is “activated pulmonary fibrosis at the same level as in TGF-β”.

Consider `Cc1ccc(=O)n(-c2ccccc2)c1` [pirfenidone], for which the “inhibitory rate of COL-1” value in data set [2] is 157%. Moreover, the “expression of fibronectin, quantitative analysis of inhibitory efficiency” value in data set [3] was “about 120%”. Moreover, the “hydroxyproline inhibition, quantitative analysis” value in data set [4] stood at 105%. The level of hydroxyproline result in data set [4] (versus bleomycin group) is listed as “partially reduced”. Further, the body weight entry in data set [4] (up to day 21 after bleomycin) is on record as “further reduced”.

For `CCCCCCCCCCCCCCCC(=O)O` [palmitic acid, reference compound], in data set [5], the “cell viability of pulmonary fibroblasts” value is given as “increased according to the concentration”. Also, in data set [6], the “cell viability of pulmonary epithelial cells” value is listed as “decreased according to the treatment concentration”. Besides, in the data set with pulmonary fibroblasts (setting [8]), the “collagen 1/actin” value is recorded as “increased at levels similar to that in the case where pulmonary fibroblasts were treated with only TGF-β” and the α-SMA/actin entry is given as “increased at levels similar to that in the case where pulmonary fibroblasts were treated with only TGF-β”.

As for `COC(=O)c1ccc2c(c1)NC(=O)/C2=C(\Nc1ccc(N(C)C(=O)CN2CCN(C)CC2)cc1)c1ccccc1` [nintedanib], the “expression level of COL-1” value in data set [7] (setting [9]) and in data set [7] (setting [10]) was “no change” each time. In addition, the “expression level of α-SMA” value in data set [7] (setting [9]) and in data set [7] (setting [10]) was “no change” in each case. In addition, in data set [7] (Homo sapiens, Col1, 2 μM nintedanib, 40 μM stearic acid, COL-1 expression caused by TGF assumed 100%, read-out: inhibitory rate against COL-1), the inhibition at 2 µM is 110%.
